Test results reported in patent US20250340574A1, “MODULATORS OF CYSTIC FIBROSIS TRANSMEMBRANE CONDUCTANCE REGULATOR” (Vertex Pharmaceuticals Incorporated, priority 2022, published 2025).

Molecular target: T1, CFTR (F508del/MF-HBE cells) (Homo sapiens, UniProt P13569, DEL508-508)
T1 construct: human bronchial epithelial (HBE) cells derived from CF subjects heterozygous for F508del and a minimal function CFTR mutation (F508del/MF-HBE); endogenous in cells; host or cells: Primary human bronchial epithelial cells from CF subjects (F508del/MF genotype), differentiated at an air-liquid interface
Assay: Ussing chamber assay of CFTR-mediated short-circuit currents, Assay D (single concentration of 1 μM)
Format: cell-based
Conditions: with 44 nM potentiator and 18 μM Tezacaftor, 20% human serum; for D activity at 1 μM (%): 18-24 hours
Summary of the method: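 F508del/MF-HBE cells were preincubated 18–24 h at 37 °C in 20% human serum with corrector plus 18 μM tezacaftor and either 33 nM (concentration series) or 44 nM (1 μM single point) of the aminotrifluoromethyl triazatricyclic potentiator. Ussing chamber, Vhold=0 mV, 37 °C; forskolin 20 μM stimulation, CFTR ISC taken as inhibitor-cocktail-sensitive current.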

T1 sequence (P13569 with tags, fused parts or gaps DEL508-508): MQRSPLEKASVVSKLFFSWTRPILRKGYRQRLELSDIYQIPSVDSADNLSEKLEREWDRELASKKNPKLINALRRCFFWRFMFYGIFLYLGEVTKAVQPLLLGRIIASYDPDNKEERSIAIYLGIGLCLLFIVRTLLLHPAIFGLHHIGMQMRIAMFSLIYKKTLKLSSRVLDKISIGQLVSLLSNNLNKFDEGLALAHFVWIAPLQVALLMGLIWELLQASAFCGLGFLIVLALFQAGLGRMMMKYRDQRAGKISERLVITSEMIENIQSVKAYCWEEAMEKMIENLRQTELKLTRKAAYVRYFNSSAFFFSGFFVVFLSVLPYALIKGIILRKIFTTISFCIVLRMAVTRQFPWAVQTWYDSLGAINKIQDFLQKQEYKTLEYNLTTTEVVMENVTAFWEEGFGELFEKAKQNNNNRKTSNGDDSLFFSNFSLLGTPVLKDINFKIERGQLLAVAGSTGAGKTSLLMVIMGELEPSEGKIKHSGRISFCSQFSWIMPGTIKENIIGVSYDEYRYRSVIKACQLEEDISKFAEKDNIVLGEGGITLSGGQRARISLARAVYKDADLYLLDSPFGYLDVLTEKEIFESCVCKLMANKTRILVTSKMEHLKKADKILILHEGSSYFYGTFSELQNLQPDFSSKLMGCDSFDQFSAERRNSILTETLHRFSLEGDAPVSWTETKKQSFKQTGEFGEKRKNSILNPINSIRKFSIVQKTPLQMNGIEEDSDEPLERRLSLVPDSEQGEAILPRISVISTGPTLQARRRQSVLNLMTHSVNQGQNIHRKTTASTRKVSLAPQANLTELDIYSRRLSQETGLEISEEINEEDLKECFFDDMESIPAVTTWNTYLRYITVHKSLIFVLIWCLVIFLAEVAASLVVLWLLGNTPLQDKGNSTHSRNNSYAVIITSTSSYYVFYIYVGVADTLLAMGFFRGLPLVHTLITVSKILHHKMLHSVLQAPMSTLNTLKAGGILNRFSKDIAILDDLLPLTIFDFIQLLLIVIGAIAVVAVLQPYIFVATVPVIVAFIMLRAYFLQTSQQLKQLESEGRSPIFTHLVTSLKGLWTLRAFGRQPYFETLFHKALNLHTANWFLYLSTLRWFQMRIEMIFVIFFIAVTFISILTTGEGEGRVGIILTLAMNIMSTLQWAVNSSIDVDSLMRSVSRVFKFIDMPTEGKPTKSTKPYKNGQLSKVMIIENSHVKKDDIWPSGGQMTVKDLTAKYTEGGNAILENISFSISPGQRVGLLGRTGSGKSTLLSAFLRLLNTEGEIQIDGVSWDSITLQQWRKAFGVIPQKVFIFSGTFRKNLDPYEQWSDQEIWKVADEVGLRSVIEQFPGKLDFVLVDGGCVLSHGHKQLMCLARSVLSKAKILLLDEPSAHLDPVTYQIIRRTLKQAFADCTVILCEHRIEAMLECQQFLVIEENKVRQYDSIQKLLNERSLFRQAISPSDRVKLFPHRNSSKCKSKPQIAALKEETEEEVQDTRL

SMILES	D activity at 1 μM (%)	D act. at 1 μM (%)
Cc1cccc(C)c1-c1nc2nc(c1C)OC[C@@H](CCC(C)(C)C)N(Cc1cnc3oc(C4CC4)cc3n1)C(=O)c1cccc(c1)S(=O)(=O)N2 [Compound I-184]	+++ (+++ is >60%)	
Cc1cccc(C)c1-c1cc2nc(n1)NS(=O)(=O)c1cccc(c1)C(=O)N(Cc1cnc3oc(C4(C)CC4)cc3n1)[C@H](COC(C)C)CO2 [Compound I-186]	+++ (+++ is >60%)	
Cc1cccc(C)c1-c1nc2nc(c1C)OC[C@@H](COC(C)C)N(Cc1cnc3cc(C(C)C)n(C)c3n1)C(=O)c1cccc(c1)S(=O)(=O)N2 [Compound I-189]	+++ (+++ is >60%)	
Cc1cccc(C)c1-c1cc2nc(n1)NS(=O)(=O)c1cccc(c1)C(=O)N(Cc1cnc3cc(C(C)C)n(C)c3n1)[C@H](Cc1ccccc1)CO2 [Compound I-190]	+++ (+++ is >60%)	
Cc1cccc(C)c1-c1nc2nc(c1C)OC[C@@H](C[C@H]1CCCCO1)N(Cc1cnc3oc(C4CC4)cc3n1)C(=O)c1cccc(c1)S(=O)(=O)N2 [Compound I-192]	+++ (+++ is >60%)	
Cc1cccc(C)c1-c1cc2nc(n1)NS(=O)(=O)c1cccc(c1)C(=O)N(Cc1ncc3oc(C4CC4)cc3n1)[C@H](COC(C)C)CO2 [Compound I-200]	+++ (+++ is >60%)	
Cc1cccc(C)c1-c1cc2nc(n1)NS(=O)(=O)c1cccc(c1F)C(=O)N(Cc1cnc3cc(C(C)C)n(CCO)c3n1)[C@H](CC1(C)CC1)CO2 [Compound I-215]	+++ (+++ is >60%)	
Cc1cccc(C)c1-c1nc2nc(c1C)OC[C@@H](COC(C)C)N(Cc1cnc3oc(C(C)(C)C)cc3n1)C(=O)c1cccc(c1)S(=O)(=O)N2 [Compound I-216]	+++ (+++ is >60%)	
Cc1cccc(C)c1-c1cc2nc(n1)NS(=O)(=O)c1cccc(c1)C(=O)N(Cc1cnc3oc(C(C)(C)C)cc3n1)[C@H](CC1CC1)CO2 [Compound I-219]	+++ (+++ is >60%)	
Cc1cccc(C)c1-c1nc2nc(c1C)OC[C@@H](CC1(C)CC1)N(Cc1cnc3oc(C(C)(C)C)cc3n1)C(=O)c1cccc(c1)S(=O)(=O)N2 [Compound I-221]	+++ (+++ is >60%)	
Cc1cccc(C)c1-c1nc2nc(c1C)OC[C@@H](CC13CC(C1)C3)N(Cc1cnc3oc(C(C)(C)C)cc3n1)C(=O)c1cccc(c1)S(=O)(=O)N2 [Compound I-223]	+++ (+++ is >60%)	
Cc1cccc(CC2CCCCC2)c1-c1nc2nc(c1C)OC[C@@H](CC(C)(C)C)N(Cc1cnc3oc(C4CC4)cc3n1)C(=O)c1cccc(c1)S(=O)(=O)N2 [Compound I-224]	+++ (+++ is >60%)	
Cc1cccc(C)c1-c1cc2nc(n1)NS(=O)(=O)c1cccc(c1)C(=O)N(Cc1ccc3oc(C4(C)CC4)cc3n1)[C@H](CC1(C)CC1)CO2 [Compound I-226]	+++ (+++ is >60%)	
Cc1cccc(C)c1-c1nc2nc(c1C)OC[C@@H](CC(C)(C)C)N(Cc1cnc3cc(C4(C)CC4)n(C)c3n1)C(=O)c1cccc(c1)S(=O)(=O)N2 [Compound I-229]	+++ (+++ is >60%)	
Cc1cccc(C)c1-c1nc2nc(c1C)OC[C@@H](CC1(C)CC1)N(Cc1cnc3cc(C4(C)CC4)n(C)c3n1)C(=O)c1cccc(c1)S(=O)(=O)N2 [Compound I-230]	+++ (+++ is >60%)	
Cc1cccc(C)c1-c1nc2nc(c1C)OC[C@@H](CC1(C)CC1)N(Cc1cnc3oc(C4(C)CC4)cc3n1)C(=O)c1cccc(c1)S(=O)(=O)N2 [Compound I-232]	+++ (+++ is >60%)	
Cc1cccc(C)c1-c1cc2nc(n1)NS(=O)(=O)c1cccc(c1)C(=O)N(Cc1nc3cc(C4(C)CC4)oc3cc1F)[C@H](CC13CC(C1)C3)CO2 [Compound I-233]	+++ (+++ is >60%)	
Cc1cccc(C)c1-c1nc2nc(c1C)OC[C@@H](CC(C)(C)C)N(Cc1ccc3oc(C4(C)CC4)cc3n1)C(=O)c1cccc(c1)S(=O)(=O)N2 [Compound I-235]	+++ (+++ is >60%)	
Cc1cccc(C)c1-c1nc2nc(c1C)OC[C@@H](CC(C)(C)C)N(Cc1nc3cc(C4(C)CC4)oc3cc1F)C(=O)c1cccc(c1)S(=O)(=O)N2 [Compound I-236]	+++ (+++ is >60%)	
Cc1cccc(C)c1-c1cc2nc(n1)NS(=O)(=O)c1cccc(c1)C(=O)N(Cc1cnc3oc(C(C)C)c(N)c3n1)[C@H](CC1(C)CC1)CO2 [Compound I-237, (11R)-12-[(7-Amino-6-isopropyl-furo[2,3-b]pyrazin-2-yl)methyl]-6-(2,6-dimethylphenyl)-11-[(1-methylcyclopropyl)methyl]-2,2-dioxo-9-oxa-2λ^6-thia-3,5,12,19-tetrazatricyclo[12.3.1.14,8]nonadeca-1(18),4(19),5,7,14,16-hexaen-13-one]	+++ (+++ is >60%)	
Cc1cccc(C)c1-c1cc2nc(n1)NS(=O)(=O)c1cccc(c1)C(=O)N(Cc1ccc3oc(C4(C)CC4)cc3n1)[C@H](COC(C)C)CO2 [Compound I-241]	+++ (+++ is >60%)	
Cc1cccc(C)c1-c1cc2nc(n1)NS(=O)(=O)c1cccc(c1)C(=O)N(Cc1nc3cc(C(C)(C)C)oc3cc1F)[C@H](COC(C)C)CO2 [Compound I-242]	+++ (+++ is >60%)	
Cc1cccc(C)c1-c1cc2nc(n1)NS(=O)(=O)c1cccc(c1)C(=O)N(Cc1nc3cc(C(C)(C)C)oc3cc1F)[C@H](CC1(C)CC1)CO2 [Compound I-243]	+++ (+++ is >60%)	
Cc1cccc(C)c1-c1cc2nc(n1)NS(=O)(=O)c1cccc(c1)C(=O)N(Cc1nc3cc(C(C)(C)C)oc3cc1F)[C@H](CC13CC(C1)C3)CO2 [Compound I-244]	+++ (+++ is >60%)	
Cc1cccc(CC(C)C)c1-c1nc2nc(c1C)OC[C@@H](CC13CC(C1)C3)N(Cc1cnc3oc(C(C)(C)C)cc3n1)C(=O)c1cccc(c1)S(=O)(=O)N2 [Compound I-248]	+++ (+++ is >60%)	
Cc1cccc(C)c1-c1cc2nc(n1)NS(=O)(=O)c1cccc(c1)C(=O)N(Cc1ncc3oc(C(C)(C)C)cc3n1)[C@H](CC(C)(C)C)CO2 [Compound I-250]	+++ (+++ is >60%)	
Cc1cccc(C)c1-c1cc2nc(n1)NS(=O)(=O)c1cccc(c1)C(=O)N(Cc1ncc3oc(C(C)(C)C)cc3n1)[C@H](CC1(C)CC1)CO2 [Compound I-252]	+++ (+++ is >60%)	
Cc1cccc(C)c1-c1cc2nc(n1)NS(=O)(=O)c1cccc(c1)C(=O)N(Cc1nc3cc(C4(C)CC4)oc3cc1F)[C@H](COC(C)C)CO2 [Compound I-253]	+++ (+++ is >60%)	

Second part, the compound after the results:

D activity at 1 μM (%)	D act. at 1 μM (%)	SMILES
+++ (+++ is >60%)		Cc1cccc(C)c1-c1cc2nc(n1)NS(=O)(=O)c1cccc(c1)C(=O)N(Cc1cn3cccc(C(C)C)c3n1)[C@H](CC(C)(C)C)CO2 [III-5, (11R)-6-(2,6-dimethylphenyl)-11-(2,2-dimethylpropyl)-12-[(8-isopropylimidazo[1,2-a]pyridin-2-yl)methyl]-2,2-dioxo-9-oxa-2λ^6-thia-3,5,12,19-tetrazatricyclo[12.3.1.14,8]nonadeca-1(18),4(19),5,7,14,16-hexaen-13-one]
+++ (+++ is >60%)		Cc1cccc(C)c1-c1cc2nc(n1)NS(=O)(=O)c1cccc(c1)C(=O)N(Cc1cn3cccc(O)c3n1)[C@H](CC(C)(C)C)CO2 [III-15]
+++ (+++ is >60%)		Cc1cccc(C)c1-c1cc2nc(n1)NS(=O)(=O)c1cccc(c1)C(=O)N(Cc1nn(C(C)C)c3ccccc13)[C@H](CC(C)(C)C)CO2 [III-17]
+++ (+++ is >60%)		Cc1cccc(C)c1-c1cc2nc(n1)NS(=O)(=O)c1cccc(c1)C(=O)N(Cc1nc3c(cc(C(C)C)n3C)s1)[C@H](CC(C)(C)C)CO2 [III-20, (11R)-6-(2,6-dimethylphenyl)-11-(2,2-dimethylpropyl)-12-[(5-isopropyl-4-methyl-pyrrolo[2,3-d]thiazol-2-yl)methyl]-2,2-dioxo-9-oxa-2λ^6-thia-3,5,12,19-tetrazatricyclo[12.3.1.14,8]nonadeca-1(18),4(19),5,7,14,16-hexaen-13-one]
	+++ (+++ is >60%)	CCc1c2nc(nc1-c1c(C)cccc1C)NS(=O)(=O)c1cccc(c1)C(=O)N(Cc1cnc3oc(C(C)(C)C)cc3n1)[C@H](COC(C)C)CO2 [IV-3]
	+++ (+++ is >60%)	Cc1cccc(C)c1-c1cc2nc(n1)NS(=O)(=O)c1cccc(c1)C(=O)N(Cc1cnc3oc(C(C)(C)C)cc3n1)[C@H](CC(C)C)CO2 [IV-6]
	+++ (+++ is >60%)	Cc1cccc(C)c1-c1cc2nc(n1)NS(=O)(=O)c1cccc(c1)C(=O)N(Cc1cnc3oc(C(C)(C)C)cc3n1)[C@H](CC1CCC1)CO2 [IV-7]
	+++ (+++ is >60%)	Cc1cccc(C)c1-c1cc2nc(n1)NS(=O)(=O)c1cccc(c1)C(=O)N(Cc1cnc3oc(C(C)(C)C)cc3n1)[C@H](CC1CCCC1)CO2 [IV-8]
	+++ (+++ is >60%)	Cc1cccc(C)c1-c1cc2nc(n1)NS(=O)(=O)c1cccc(c1)C(=O)N(Cc1cnc3oc(C(C)(C)C)cc3n1)[C@H](CC1CCCCC1)CO2 [IV-9]
	+++ (+++ is >60%)	Cc1cccc(C)c1-c1cc2nc(n1)NS(=O)(=O)c1cccc(c1)C(=O)N(Cc1cnc3oc(C(C)(C)C)cc3n1)[C@@H](CCC1(C)CC1)CO2 [IV-10]
	+++ (+++ is >60%)	COC(C)(C)CC(C)(O)c1cc2nc(CN3C(=O)c4cccc(c4)S(=O)(=O)Nc4nc(cc(-c5c(C)cccc5C)n4)OC[C@H]3CC3(C)CC3)cnc2o1 (stereo partly drawn) [IV-13, (11R)-6-(2,6-dimethylphenyl)-12-[[6-(1-hydroxy-3-methoxy-1,3-dimethyl-butyl)furo[2,3-b]pyrazin-2-yl]methyl]-11-[(1-methylcyclopropyl)methyl]-2,2-dioxo-9-oxa-2λ^6-thia-3,5,12,19-tetrazatricyclo[12.3.1.14,8]nonadeca-1(18),4(19),5,7,14,16-hexaen-13-one]
